Columns and labels:
[1] = target: Proto-oncogene tyrosine-protein kinase ROS (Homo sapiens, UniProt P08922); experiment: Inhibition of recombinant human GST-tagged ROS1 cytoplasmic domain expressed in baculovirus expression system using tyrosine-2 peptide as substrate incubated for 60 mins in presence of ATP by Z'-LYTE assay
[2] = target: MAP kinase-interacting serine/threonine-protein kinase 1 (Homo sapiens, UniProt Q9BUB5); experiment: Inhibition of recombinant full length human GST-tagged MKNK1 expressed in insect cells using serine/threonine-7 peptide as substrate incubated for 60 mins in presence of ATP by Z'-LYTE assay
Chain of MAP kinase-interacting serine/threonine-protein kinase 1 (Q9BUB5 whole entry, the tested form may be a part): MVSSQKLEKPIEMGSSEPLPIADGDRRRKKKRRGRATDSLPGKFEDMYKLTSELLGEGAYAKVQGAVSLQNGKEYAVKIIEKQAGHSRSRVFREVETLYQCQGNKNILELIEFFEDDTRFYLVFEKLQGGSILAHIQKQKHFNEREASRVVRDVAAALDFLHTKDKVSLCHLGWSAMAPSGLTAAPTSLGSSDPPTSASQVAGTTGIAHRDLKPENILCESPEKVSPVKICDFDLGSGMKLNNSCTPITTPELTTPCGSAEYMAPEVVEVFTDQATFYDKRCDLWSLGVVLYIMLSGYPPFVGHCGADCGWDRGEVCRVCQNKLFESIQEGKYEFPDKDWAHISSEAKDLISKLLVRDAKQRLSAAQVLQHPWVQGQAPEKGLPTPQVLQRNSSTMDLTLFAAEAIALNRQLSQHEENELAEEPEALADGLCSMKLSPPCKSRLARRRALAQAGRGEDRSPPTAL

[3] = target: Tyrosine-protein kinase ABL1 (Homo sapiens, UniProt P00519, G250E); experiment: Inhibition of recombinant full length human His-tagged ABL1 G250E mutant cytoplasmic domain expressed in baculovirus expression system using tyrosine-2 peptide as substrate incubated for 60 mins in presence of ATP by Z'-LYTE assay
[4] = target: Muscle, skeletal receptor tyrosine-protein kinase (Homo sapiens, UniProt O15146); experiment: Inhibition of recombinant human GST-tagged MUSK cytoplasmic domain (519 to 869 residues) expressed in baculovirus expression system using tyrosine-4 peptide as substrate incubated for 60 mins in presence of ATP by Z'-LYTE assay
Chain of Muscle, skeletal receptor tyrosine-protein kinase (O15146 whole entry, the tested form may be a part): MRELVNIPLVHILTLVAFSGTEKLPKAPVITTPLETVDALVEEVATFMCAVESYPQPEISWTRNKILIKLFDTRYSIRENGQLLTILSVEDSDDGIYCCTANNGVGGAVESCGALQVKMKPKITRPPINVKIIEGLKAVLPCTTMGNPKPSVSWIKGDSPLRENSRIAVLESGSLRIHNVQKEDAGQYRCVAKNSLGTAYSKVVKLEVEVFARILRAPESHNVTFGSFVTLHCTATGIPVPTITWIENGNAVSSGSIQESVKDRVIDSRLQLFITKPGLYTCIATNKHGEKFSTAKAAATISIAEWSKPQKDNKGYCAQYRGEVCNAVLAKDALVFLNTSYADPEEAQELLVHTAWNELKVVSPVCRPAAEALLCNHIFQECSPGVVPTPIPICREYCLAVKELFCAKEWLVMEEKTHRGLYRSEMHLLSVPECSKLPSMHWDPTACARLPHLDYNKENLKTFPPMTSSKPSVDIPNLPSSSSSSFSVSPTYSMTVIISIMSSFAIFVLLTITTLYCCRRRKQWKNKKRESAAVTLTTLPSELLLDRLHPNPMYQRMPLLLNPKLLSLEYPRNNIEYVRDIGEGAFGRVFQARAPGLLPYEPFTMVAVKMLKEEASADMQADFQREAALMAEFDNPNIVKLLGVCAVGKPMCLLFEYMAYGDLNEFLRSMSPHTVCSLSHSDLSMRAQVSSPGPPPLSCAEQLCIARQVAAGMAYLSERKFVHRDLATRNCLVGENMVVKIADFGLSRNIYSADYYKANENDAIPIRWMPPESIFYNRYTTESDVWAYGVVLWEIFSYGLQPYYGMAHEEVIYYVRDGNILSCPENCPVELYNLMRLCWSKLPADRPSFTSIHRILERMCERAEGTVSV

[5] = target: Platelet-derived growth factor receptor alpha (Homo sapiens, UniProt P16234, D842V); experiment: Inhibition of recombinant human GST-tagged PDGFRalpha D842V cytoplasmic domain expressed in baculovirus expression system using tyrosine-4 peptide as substrate incubated for 60 mins in presence of ATP by Z'-LYTE assay
Chain of Platelet-derived growth factor receptor alpha (P16234 24-1089 D842V limits assumed): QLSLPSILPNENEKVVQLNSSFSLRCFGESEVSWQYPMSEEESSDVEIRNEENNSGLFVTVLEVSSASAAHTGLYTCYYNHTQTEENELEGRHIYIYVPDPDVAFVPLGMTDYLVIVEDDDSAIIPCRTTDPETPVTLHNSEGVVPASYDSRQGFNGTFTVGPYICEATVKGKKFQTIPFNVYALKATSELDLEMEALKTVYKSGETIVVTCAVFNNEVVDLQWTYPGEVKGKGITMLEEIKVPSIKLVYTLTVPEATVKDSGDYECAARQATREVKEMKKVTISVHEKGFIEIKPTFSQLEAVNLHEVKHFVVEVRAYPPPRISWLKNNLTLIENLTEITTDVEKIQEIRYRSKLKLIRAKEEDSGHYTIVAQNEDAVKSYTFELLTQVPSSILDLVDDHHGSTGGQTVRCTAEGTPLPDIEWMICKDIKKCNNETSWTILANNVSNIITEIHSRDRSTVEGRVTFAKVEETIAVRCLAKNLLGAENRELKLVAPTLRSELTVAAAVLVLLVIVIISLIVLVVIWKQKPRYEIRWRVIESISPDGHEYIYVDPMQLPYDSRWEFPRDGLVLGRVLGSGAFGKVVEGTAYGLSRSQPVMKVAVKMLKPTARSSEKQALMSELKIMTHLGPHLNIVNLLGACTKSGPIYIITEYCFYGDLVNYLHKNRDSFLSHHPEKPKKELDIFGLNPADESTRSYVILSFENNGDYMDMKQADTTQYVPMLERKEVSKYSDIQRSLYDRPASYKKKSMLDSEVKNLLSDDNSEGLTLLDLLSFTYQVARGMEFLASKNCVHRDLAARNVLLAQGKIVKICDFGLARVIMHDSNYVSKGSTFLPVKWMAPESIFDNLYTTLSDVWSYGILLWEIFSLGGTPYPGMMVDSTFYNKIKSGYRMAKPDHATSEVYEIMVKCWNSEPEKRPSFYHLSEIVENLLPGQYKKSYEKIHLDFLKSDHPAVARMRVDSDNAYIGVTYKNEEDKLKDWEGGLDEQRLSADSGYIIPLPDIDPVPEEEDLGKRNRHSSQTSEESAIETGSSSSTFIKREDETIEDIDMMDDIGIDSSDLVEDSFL

Measured: IC50

Chain of Proto-oncogene tyrosine-protein kinase ROS (P08922 whole entry, the tested form may be a part): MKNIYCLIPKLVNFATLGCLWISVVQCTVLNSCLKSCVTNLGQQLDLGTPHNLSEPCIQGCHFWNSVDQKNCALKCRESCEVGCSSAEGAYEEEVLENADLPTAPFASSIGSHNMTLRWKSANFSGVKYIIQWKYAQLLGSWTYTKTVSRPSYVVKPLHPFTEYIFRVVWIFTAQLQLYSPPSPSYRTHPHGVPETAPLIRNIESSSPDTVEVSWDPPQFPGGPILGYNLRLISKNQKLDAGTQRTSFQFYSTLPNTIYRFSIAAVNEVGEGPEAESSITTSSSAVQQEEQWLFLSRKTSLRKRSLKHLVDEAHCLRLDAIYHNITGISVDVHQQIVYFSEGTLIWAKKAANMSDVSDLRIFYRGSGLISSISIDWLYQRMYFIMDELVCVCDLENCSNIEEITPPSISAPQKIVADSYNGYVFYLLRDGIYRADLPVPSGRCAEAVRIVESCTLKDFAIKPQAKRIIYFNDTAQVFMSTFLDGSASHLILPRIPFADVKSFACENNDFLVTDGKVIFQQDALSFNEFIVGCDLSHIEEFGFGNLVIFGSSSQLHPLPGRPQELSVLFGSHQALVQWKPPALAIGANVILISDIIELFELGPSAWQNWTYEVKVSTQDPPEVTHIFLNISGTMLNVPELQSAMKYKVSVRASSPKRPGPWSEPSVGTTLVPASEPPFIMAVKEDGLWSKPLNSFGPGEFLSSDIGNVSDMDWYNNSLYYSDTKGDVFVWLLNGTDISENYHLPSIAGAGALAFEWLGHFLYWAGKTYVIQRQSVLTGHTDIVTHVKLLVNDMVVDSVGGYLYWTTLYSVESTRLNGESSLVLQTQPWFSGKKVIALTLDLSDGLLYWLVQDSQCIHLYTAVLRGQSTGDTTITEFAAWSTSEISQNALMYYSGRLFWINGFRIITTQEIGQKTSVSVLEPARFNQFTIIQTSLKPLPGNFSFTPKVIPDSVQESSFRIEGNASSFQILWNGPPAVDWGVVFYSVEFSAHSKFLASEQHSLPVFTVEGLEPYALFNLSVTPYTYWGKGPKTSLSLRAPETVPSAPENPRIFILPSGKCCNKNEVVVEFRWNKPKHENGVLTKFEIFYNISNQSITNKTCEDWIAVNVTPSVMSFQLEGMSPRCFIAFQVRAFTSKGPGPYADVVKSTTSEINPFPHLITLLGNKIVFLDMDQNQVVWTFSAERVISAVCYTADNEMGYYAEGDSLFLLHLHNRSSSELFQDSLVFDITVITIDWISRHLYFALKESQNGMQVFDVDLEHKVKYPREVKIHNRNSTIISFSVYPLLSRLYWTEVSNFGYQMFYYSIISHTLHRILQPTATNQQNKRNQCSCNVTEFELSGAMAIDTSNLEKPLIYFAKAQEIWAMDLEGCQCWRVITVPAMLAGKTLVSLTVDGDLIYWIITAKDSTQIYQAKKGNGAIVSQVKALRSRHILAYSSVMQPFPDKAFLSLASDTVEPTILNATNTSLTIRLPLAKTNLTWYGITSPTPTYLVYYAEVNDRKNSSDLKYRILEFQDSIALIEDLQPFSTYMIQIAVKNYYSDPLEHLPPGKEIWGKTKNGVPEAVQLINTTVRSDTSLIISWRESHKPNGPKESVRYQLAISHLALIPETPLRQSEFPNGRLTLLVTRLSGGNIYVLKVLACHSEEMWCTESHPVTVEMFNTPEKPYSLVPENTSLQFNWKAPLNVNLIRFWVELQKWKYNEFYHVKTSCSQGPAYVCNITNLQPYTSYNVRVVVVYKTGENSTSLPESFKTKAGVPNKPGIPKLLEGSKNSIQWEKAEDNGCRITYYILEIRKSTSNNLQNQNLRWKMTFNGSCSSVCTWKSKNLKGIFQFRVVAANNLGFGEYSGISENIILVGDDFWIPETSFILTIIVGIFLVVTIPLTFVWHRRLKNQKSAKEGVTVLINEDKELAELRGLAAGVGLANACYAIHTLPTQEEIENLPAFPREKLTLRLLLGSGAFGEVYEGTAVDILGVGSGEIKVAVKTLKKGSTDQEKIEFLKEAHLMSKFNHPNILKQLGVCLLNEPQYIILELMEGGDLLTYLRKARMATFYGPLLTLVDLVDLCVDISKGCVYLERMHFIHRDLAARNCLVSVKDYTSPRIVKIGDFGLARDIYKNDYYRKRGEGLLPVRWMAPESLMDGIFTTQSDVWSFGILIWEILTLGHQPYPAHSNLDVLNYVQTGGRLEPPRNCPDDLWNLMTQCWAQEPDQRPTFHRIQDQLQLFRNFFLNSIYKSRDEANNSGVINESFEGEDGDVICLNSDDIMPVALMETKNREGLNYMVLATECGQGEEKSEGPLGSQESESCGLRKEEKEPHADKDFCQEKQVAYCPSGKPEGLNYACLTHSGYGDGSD

C[C@@H]1C[C@H]1C(=O)N1CCN(c2cnc(C#N)c(-c3cnn(C)c3)n2)C[C@H]1C
> 100 µM: all assays above
